In US9499486B2, “Kinase inhibitor” (RESPIVERT LIMITED, priority 2014, dated 2016):
≈ marks a conversion by molar mass, not a printed value.

Experiments:
[1] = system: LPS-stimulated rats; test: Endotoxin-induced uveitis in rats; assay type: in vivo, rat; settings: mean ± SEM; for IL-1β Anterior tissue / IL-1β Posterior tissue: LPS-stimulated rats; for Cell counts: aqueous humor
Procedure: Male, Lewis rats (6-8 weeks old, Charles River UK Limited) are housed in cages of 3 at 19-21° C. with a 12 h light/dark cycle (07:00/19:00) and fed a standard diet of rodent chow and water ad libitum. Non-fasted rats are weighed, individually identified on the tail with a permanent marker, and receive a single intravitreal administration into the right vitreous humor (5 μL dose volume) of 100 ng/animal of LPS (Escherichia coli 0111:B4 prepared in PBS, Sigma Aldrich, UK) using a 32-gauge needle. Untreated rats are injected with PBS. Test compound or vehicle (4% polyoxyl 40 stearate, 4% mannitol in PBS (pH 7.4)) are administered by the topical route onto the right eye (10 μL) of animals 1 hour prior to LPS, at the time of LPS administration, and 1, 2 and 4 hours post LPS administration. Before administration, the solution to be administered is sonicated to ensure a clear solution. 6 hours after LPS dosing, animals are euthanized by overdose with pentobarbitone (via cardiac puncture). Immediately after euthanasia, 10 μL of aqueous humor is collected from the right eye of the rats by puncture of the anterior chamber using a 32 gauge needle under a surgical microscope. The aqueous humor is diluted in 20 μL of PBS and total cell counts are measured immediately using a Countess automated cell counter (Invitrogen). Following collection of the aqueous humour, the right eye of each animal is enucleated and dissected into front (anterior) and back (posterior) sections around the lens. Each section is weighed and homogenised in 500 μL of sterile phosphate buffered saline followed by 20 minutes centrifugation at 12000 rpm at 4° C. The resulting supernatant is divided into 3 aliquots and stored at −80° C. until subsequent cytokine analysis by R&D DuoSet ELISA.

[2] = target: p38 MAPKα (Homo sapiens (Human), UniProt Q16539); test: p38 MAPKα enzyme inhibition (Method 2), Z-LYTE FRET; assay type: biochemical
Chain of p38 MAPKα (Q16539 whole entry, looked up): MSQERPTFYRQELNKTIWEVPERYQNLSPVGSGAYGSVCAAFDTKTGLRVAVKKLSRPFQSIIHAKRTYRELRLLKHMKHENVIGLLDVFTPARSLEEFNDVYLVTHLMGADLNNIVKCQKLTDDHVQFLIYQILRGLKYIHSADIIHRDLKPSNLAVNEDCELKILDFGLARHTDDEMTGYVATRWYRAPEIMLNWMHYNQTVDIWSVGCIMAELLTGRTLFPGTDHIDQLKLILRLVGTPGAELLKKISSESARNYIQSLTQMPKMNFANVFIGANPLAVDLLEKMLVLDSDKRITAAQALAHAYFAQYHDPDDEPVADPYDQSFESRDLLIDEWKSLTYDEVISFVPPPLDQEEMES
Procedure: The enzyme inhibitory activities of the compound disclosed herein are determined by FRET using synthetic peptides labelled with both donor and acceptor fluorophores (Z-LYTE, Invitrogen Ltd., Paisley, UK).
The inhibitory activities of test compounds against the p38 MAPKα isoform (MAPK14: Invitrogen) are evaluated indirectly by determining the level of activation/phosphorylation of the down-stream molecule, MAPKAP-K2. The p38 MAPKα protein (80 ng/mL, 2.5 μL) is mixed with the test compound (2.5 μL of either 4 μg/mL, 0.4 μg/mL, 0.04 μg/mL or 0.004 μg/mL) for 2 hr at RT. […] The mixture is incubated for 1 hr at RT. Development reagent (protease, 5 μL) is added for 1 hr prior to detection in a fluorescence microplate reader (Varioskan® Flash, ThermoFisher Scientific). […]
In all cases, the site-specific protease cleaves non-phosphorylated peptide only and eliminates the FRET signal. Phosphorylation levels of each reaction are calculated using the ratio of coumarin emission (donor) over fluorescein emission (acceptor), for which high ratios indicate high phosphorylation and low ratios indicate low phosphorylation levels.

[3] = Solubility in fasted-state simulated colonic fluid (FaSSCoF); assay type: physicochemical
Procedure: The solubility of the compound of the invention in FaSSCoF at pH 6.5 is determined using a modification of a previously-reported procedure (Vertzoni, M., et al. Pharm. Res. 2010, 27, 2187-2196). In place of the bile salt extract employed in the original procedure (which extract is no longer available), the modified procedure uses a mixture of sodium taurochlorate (0.15 g), glycocholic acid (0.15 g), ursodeoxycholic acid (0.05 g), cholic acid (0.05 g), and glycodeoxycholic acid (0.05 g). These five bile acids are ground together with a mortar and pestle to produce a fine white powder that is incorporated into the FaSSCoF, as outlined below.
FaSSCoF medium: Tris(hydroxymethyl)aminomethane (Tris; 0.275 g) and maleic acid (0.44 g) are dissolved in water (35 mL) to give a solution whose pH is adjusted to 6.5 by treatment with 0.5M NaOH (ca. 12 mL). The solution is then made up to 50 mL with water. A portion of this Tris/maleate buffer solution (ca. 25 mL) is added to a 0.5 L round-bottomed flask, before being treated with 0.00565 g of the bile acid mixture described above. Solutions of phosphatidylcholine (0.0111 g) in DCM (0.15 mL) and palmitic acid (0.0013 g) in DCM (0.15 mL) are added, then the organic solvent is evaporated off under reduced pressure at 40° C. until a clear solution, with no perceptible DCM odour, is achieved. The volume of the evaporated solution is adjusted to 50 mL by addition of the remainder of Tris/maleate buffer, then BSA (0.115 g) is added, before being dissolved by gentle agitation.
Solubility Determination: Test compounds are suspended in the pH 6.5 FaSSCoF medium to give a maximum final concentration of 2-10 mg/mL. The suspensions are equilibrated at 25° C. for 24 h, before being filtered through a glass fibre C filter. The filtrates are then diluted as appropriate for injection and quantification by HPLC with reference to a standard. Different volumes of the standard, diluted and undiluted sample solutions are injected and the solubilities are calculated using the peak areas determined by integration of the peak found at the same retention time as the principal peak in the standard injection.

[4] = target: Lck (Homo sapiens (Human), UniProt P06239); test: KINOMEscan dissociation constant, Lck; assay type: binding
Chain of Lck (P06239 whole entry): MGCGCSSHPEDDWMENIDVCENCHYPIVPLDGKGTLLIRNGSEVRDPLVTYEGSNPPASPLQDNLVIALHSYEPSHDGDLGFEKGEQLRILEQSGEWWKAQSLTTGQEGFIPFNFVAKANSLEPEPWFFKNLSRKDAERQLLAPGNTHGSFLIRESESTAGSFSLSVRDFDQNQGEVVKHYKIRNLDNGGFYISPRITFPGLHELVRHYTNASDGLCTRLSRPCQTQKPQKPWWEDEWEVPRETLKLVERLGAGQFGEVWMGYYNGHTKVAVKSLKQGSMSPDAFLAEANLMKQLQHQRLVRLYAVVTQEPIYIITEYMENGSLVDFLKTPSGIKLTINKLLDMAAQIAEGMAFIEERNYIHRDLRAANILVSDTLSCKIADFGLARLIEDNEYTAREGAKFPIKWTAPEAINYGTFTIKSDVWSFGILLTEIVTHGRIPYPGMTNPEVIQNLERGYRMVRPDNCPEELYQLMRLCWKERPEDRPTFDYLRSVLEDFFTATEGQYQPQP
Text: These assays may be conducted by DiscoverX (formerly Ambit; San Diego, Calif.).

For `COc1cc(Nc2cc(Oc3ccc(NC(=O)Nc4cc(C(C)(C)C)cc(NS(C)(=O)=O)c4OC)c4ccccc34)ccn2)ccc1C(=O)O` [Example 1, 4-((4-((4-(3-(5-(tert-Butyl)-2-methoxy-3-(methylsulfonamido)phenyl)ureido)naphthalen-1-yl)oxy)pyridin-2-yl)amino)-2-methoxybenzoic acid], the “IL-1β Anterior tissue” value ([1]; 0.001 mg/mL topical) was 1558.1 ± 145.7 pg/mL, the “IL-1β Posterior tissue” value ([1]; 0.001 mg/mL topical) was 867.9 ± 120.8 pg/mL and the Cell counts ([1]; 0.001 mg/mL topical) was 63.6 ± 7.0 ×10^5/mL. For the same compound, the “IL-1β Anterior tissue” value ([1]; 0.01 mg/mL topical) was 980.0 ± 110.8 pg/mL, the “IL-1β Posterior tissue” value ([1]; 0.01 mg/mL topical) was 740.5 ± 56.2 pg/mL and the Cell counts ([1]; 0.01 mg/mL topical) was 43.5 ± 6.3 ×10^5/mL. For the same compound, the “IL-1β Anterior tissue” value ([1]; 0.1 mg/mL topical) was 791.2 ± 131.9 pg/mL, the “IL-1β Posterior tissue” value ([1]; 0.1 mg/mL topical) was 327.4 ± 61.4 pg/mL and the Cell counts ([1]; 0.1 mg/mL topical) was 30.4 ± 6.7 ×10^5/mL. For the same compound, the “IL-1β Anterior tissue” value ([1]; 1 mg/mL topical) was 367.3 ± 100.4 pg/mL, the “IL-1β Posterior tissue” value ([1]; 1 mg/mL topical) was 188.1 ± 54.7 pg/mL and the Cell counts ([1]; 1 mg/mL topical) was 21.9 ± 5.0 ×10^5/mL. For the same compound, the IC50 [2] was 11 nM, the solubility at 24 h ([3]; fasted-state simulated colonic fluid (FaSSCoF), 25 °C, fassgf or other biorelevant, thermodynamic from solid, pH 6.5, text summary, read-out: solubilities in the FaSSCoF medium at pH 6.5) was over 10 µg/mL and the solubility thermodynamic at 24 h ([3]; fasted-state simulated colonic fluid (FaSSCoF), 25 °C, pH 6.5, fassgf or other biorelevant, thermodynamic from solid, pH 6.5, 25° C., 24 h, read-out: pH 6.5 FaSSCoF Solubility Run 3) was 10 µg/mL (≈ 14.3 µM). For the same compound, the “pH 6.5 FaSSCoF Solubility Run 1” value ([3]; pH 6.5, 25° C., 24 h) was 0.016 mg/mL, the “pH 6.5 FaSSCoF Solubility Run 2” value ([3]; pH 6.5, 25° C., 24 h) was 0.018 mg/mL and the “pH 6.5 FaSSCoF Solubility Run 4” value ([3]; pH 6.5, 25° C., 24 h) was 0.011 mg/mL. For the same compound, the Kd [4] was 4.2 nM.
